{"source": "patent US20120245201A1", "about": "“Isopropylphenidate for Treatment of Attention-Deficit/Hyperactivity Disorder and Fatigue-Related Disorders and Conditions” (priority 2009, published 2012)", "key": {"[1]": {"target": "T1, human norepinephrine (NE) transporter (NET) (Homo sapiens, UniProt P23975)", "T1 construct": "host or cells: CHO cells, cell membrane homogenates", "T1 sequence (P23975 whole entry)": "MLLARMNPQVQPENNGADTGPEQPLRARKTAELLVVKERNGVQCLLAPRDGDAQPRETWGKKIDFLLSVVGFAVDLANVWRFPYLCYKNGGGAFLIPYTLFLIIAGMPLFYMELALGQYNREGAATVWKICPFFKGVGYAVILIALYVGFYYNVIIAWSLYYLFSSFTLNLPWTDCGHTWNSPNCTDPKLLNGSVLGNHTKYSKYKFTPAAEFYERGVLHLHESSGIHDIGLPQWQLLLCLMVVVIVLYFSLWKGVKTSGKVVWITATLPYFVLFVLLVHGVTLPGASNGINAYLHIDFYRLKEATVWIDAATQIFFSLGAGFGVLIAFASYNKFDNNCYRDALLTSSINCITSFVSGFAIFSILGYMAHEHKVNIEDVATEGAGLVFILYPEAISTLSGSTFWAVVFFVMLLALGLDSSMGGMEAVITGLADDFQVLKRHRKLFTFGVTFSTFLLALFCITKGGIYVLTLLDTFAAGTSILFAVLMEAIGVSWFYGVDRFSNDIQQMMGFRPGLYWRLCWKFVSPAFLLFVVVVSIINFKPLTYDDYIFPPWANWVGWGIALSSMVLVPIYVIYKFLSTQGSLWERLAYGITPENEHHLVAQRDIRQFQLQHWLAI", "assay": "Norepinephrine transporter binding assay ([3H]nisoxetine, CEREP)", "method": "Transporter Binding and Cellular Uptake. All described monoamine transporter binding studies as well as cellular uptake assays were performed in duplicate by CEREP (Celle l'Evescault, France) and are described below. Further details of all assays performed may be accessed at the CEREP web site (world-wide-web at cerep.com). Cellular-based assays were conducted to provide complementary in vitro functional measures to complement the standard transporter assays as well as to provide direct comparisons of the homologs IPH with MPH with regard to DA, NE, and 5-HT uptake in synaptosomal preparations.\nNorepinephrine Transporter Binding Assay. Evaluation of the affinity of the two compounds for the human norepinephrine (NE) transporter (NET) in transfected CHO cells was determined in a radioligand assay analogous to the procedures described for the DAT assay. Cell membrane homogenates were incubated for 90 min at 4° C. with 1 nM [^3H]nisoxetine in the absence or presence of each test compound in a standard buffer solution. Nonspecific binding was determined in the presence of 1 μM of desipramine. Following incubation, the samples were filtered rapidly under vacuum and rinsed several times with a buffer solution. The filters were then dried and radioactivity counts were obtained. The results are expressed as percent inhibition of the control radioligand specific binding. The standard reference compound was the tricyclic antidepressant (TCA) protriptyline, which was tested in each experiment at several concentrations to generate a competition curve from which its IC50 was calculated."}, "[2]": {"test_system": "human liver microsomes (HLM)", "assay": "Hydrolysis to ritalinic acid by human liver microsomes", "type": "in vitro ADME", "conditions": "1 mM substrate, 0.2 mg/ml HLM, 37° C., 60 min", "method": "FIG. 2—Hydrolysis of methylphenidate (MPH) and isopropylphenidate (IPH) by recombinant human CES1, HLM, HIM. After incubation with CES 1 transfected human cells, HLM, and HIM at 37° C. for 60 min, the metabolite RA produced via hydrolysis of MPH and IPH was determined by HPLC. Data are presented as mean±SEM of 3 to 6 independent experiments.\nDetermination of Relative Hydrolytic Rates of MPH and IPH. The assessment of relative rates of hydrolysis of the two ester compounds utilized both cell culture and human liver microsomes (HLM) and human intestinal microsomes (HIM). The human carboxylesterase 1 (hCES1) s9 fraction was prepared utilizing a novel method developed in the inventors' laboratory previously (Zhu et al., 2008). Hydrolysis of IPH and MPH by hCES1, HLM, and human intestinal microsomes was assessed by incubating the substrates with the respective enzymes and measuring the formation of the major metabolite RA formed via ester hydrolysis. Briefly, 50 μl of freshly prepared substrates (IPH and MPH) was mixed with 50 μl of enzymes in 1.5 ml Eppendorf tubes yielding a total volume of 100 μl. […] Concentrations of the primary hydrolytic product of the two compounds, RA were determined utilizing a validated HPLC method previously described."}, "[3]": {"test_system": "male rats of the Sprague-Dawley strain", "assay": "Locomotor activity measurement in rats", "type": "in vivo, rat", "method": "FIGS. 4A-B—Locomotor activity of SD rats after i.p. injection of IPH (10 mg/kg) and saline. The time course of locomotor response over a 120 min period following i.p. administration of IPH (10 mg/kg) versus saline is shown in FIG. 4A. As expected, IPH produced robust effects on locomotor activity in rats compared to saline injections at every 10 min period recorded post-dosing with a mean of nearly 1200 counts recorded during the initial 10 min measurement. Shown in FIG. 4B are the cumulative locomotor activity counts over the entire 120 min study period.\nChemical compounds. dl-threo-methylphenidate (MPH) was purchased from Sigma-Aldrich (St. Louis, Mo.). dl-isopropylphenidate (IPH) was also synthesized in the inventors' laboratory using the following method. In brief, (±)-ritalinic acid (2 mmol) was dissolved in isopropyl alcohol saturated with HCl gas (75 ml) and refluxed for 24 h under nitrogen. […] All compounds studied were assessed as their HCl salts. […]\nLocomotor Activity Measurement in Rats. Locomotor-inducing activity of IPH was measured according to methods previously described by Patrick and associates during their establishment the differential pharmacology of the enantiomers of MPH (Patrick et al., 1987) as well as hydroxylated metabolites of MPH (Patrick et al., 1981). […] In brief, following an initial 60 min habituation period to the activity chamber, racemic IPH (or saline) was administered intraperitonealy (i.p.) to each animal (n=5 per active drug group; n=3 per saline group) at a dose of 10 mg/kg to correspond with 10 mg of racemic MPH (delivering 5 mg of d-MPH) which was previously determined to produce maximal behavioral responses (Patrick et al., 1987). […] Locomotor activity was recorded within doughnut-shaped cages with six photocell sensors equally spaced around a 9 cm runway. Activity counts as assessed by light-beam interruptions were recorded for each animal in increments of 10 minutes over a 2 hr period. Differences in the cumulative motor activity accounts were assessed by the unpaired, two-tailed Student t-test. […]"}, "[4]": {"target": "T2, [3H]-(±)-MPH binding to rat brain striatal synaptosomes (Rattus norvegicus, UniProt P23977)", "T2 construct": "host or cells: rat brain striatal synaptosomes", "T2 sequence (P23977 whole entry)": "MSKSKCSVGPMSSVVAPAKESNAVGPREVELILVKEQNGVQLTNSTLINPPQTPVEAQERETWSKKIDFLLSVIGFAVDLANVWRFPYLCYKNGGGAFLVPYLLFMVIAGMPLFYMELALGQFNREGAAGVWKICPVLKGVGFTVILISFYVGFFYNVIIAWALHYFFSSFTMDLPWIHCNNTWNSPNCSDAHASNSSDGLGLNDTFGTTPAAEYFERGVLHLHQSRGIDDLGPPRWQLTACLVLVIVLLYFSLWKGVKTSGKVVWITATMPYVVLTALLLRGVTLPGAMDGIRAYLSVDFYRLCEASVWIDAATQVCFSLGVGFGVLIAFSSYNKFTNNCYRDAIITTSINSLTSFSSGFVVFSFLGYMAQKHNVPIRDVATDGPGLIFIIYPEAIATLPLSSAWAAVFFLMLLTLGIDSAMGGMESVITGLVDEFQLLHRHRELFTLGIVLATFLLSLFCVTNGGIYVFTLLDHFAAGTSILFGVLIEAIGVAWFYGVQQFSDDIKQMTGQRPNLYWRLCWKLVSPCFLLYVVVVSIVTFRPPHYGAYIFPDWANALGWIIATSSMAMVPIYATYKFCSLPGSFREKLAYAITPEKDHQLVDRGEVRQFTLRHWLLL", "conditions": "mg/mg comparison; cited from earlier work"}, "dogs": {"test_system": "dogs", "conditions": "reserpine pre-treated dogs; cited from earlier work"}, "Sprague-Dawley rats": {"test_system": "Sprague-Dawley rats", "conditions": "intracerebroventricular; cited from earlier work"}, "[5]": {"conditions": "immediate-release tablet; cited from earlier work"}}}
{"smiles": "CC(C)OC(=O)C(c1ccccc1)C1CCCCN1", "note": "(racemic) [IPH, dl-threo-α-phenyl-2-piperidineacetic acid isopropyl ester]", "values": [{"measurement": "NET affinity of IPH relative to MPH", "setting": "[1]; 10 μM, inhibition of specific control binding", "result": "one-third"}, {"measurement": "% inhibition of control specific binding, NET (h)", "setting": "[1]; 10 μM, ligand [3H]nisoxetine, transfected CHO cells, HCl salts", "result": 27, "unit": "%"}, {"measurement": "resistance to hydrolysis by HLM", "setting": "[2]", "result": "most resistant substrate to HLM"}, {"measurement": "mean locomotor activity counts during the initial 10 min measurement", "setting": "[3]; 10 mg/kg i.p., SD rats", "result": "~1200", "unit": "counts"}, {"measurement": "cumulative locomotor activity counts over 120 min versus saline", "setting": "[3]; 10 mg/kg i.p., SD rats, p<0.01", "result": "significantly elevated"}, {"measurement": "locomotor responses compared with d-MPH 5 mg/kg of the earlier study (Patrick et al., 1987)", "setting": "[3]; racemic IPH 10 mg/kg i.p., identical experimental conditions", "result": "more potent and sustained locomotor responses"}, {"measurement": "activity relative to MPH in inhibition of [3H]-(±)-MPH binding", "setting": "[4]", "result": "approximately one third"}, {"measurement": "potency versus MPH in antagonizing the physiological influences of reserpine", "setting": "dogs", "result": "lower potency"}]}
{"smiles": "COC(=O)C(c1ccccc1)C1CCCCN1", "note": "(racemic) [MPH, dl-threo-methylphenidate, reference compound]", "values": [{"measurement": "inhibition at 10 µM", "setting": "[1]; ligand [3H]nisoxetine, transfected CHO cells, HCl salts, read-out: % inhibition of control specific binding, NET (h)", "result": 88, "unit": "%"}, {"measurement": "duration of locomotor activity", "setting": "Sprague-Dawley rats", "result": 60, "unit": "min"}, {"measurement": "plasma half-life", "setting": "[5]", "result": "2 to 3", "unit": "h"}]}
